# Reference: patent US20140371074A1, “METHOD TO INCREASE PLANT YIELD” (priority 2012, published 2014)
# Assays:
# [1] = test system: soybean cultivars L2084R2, L2711R2X; test: Field 2012: 2,4-D Low Vol 4 + crop oil drizzled onto soil at R1 stage, Alexander, Iowa (Table 2a); type: in vivo
# Experimental: Plants were treated by drizzling via low pressure spraying the 2,4-D solution onto the soil along each side of the rows when plants are at the R1 stage of growth. The date of planting was May 15, 2012 and the date of harvest was Oct. 2, 2012 at plots in Alexander, Iowa (Table 2a) and Laurel, Iowa (Table 2b). Plants were grown from Roundup Ready seed and were sprayed with glyphosate for weed control. Plants were treated with between 1X and 5.5X of 2,4-D solution mixed with crop oil at 15.3 ounces of 2,4-D Low Vol 4 plus 0.32 ounces crop oil per gallon, where 1X is equivalent to approximately 0.45 pounds acid equivalent of 2,4-D. Two repetitions were performed at different plots. […] The moisture percentages were used in correcting each yield to a 13% moisture basis.
# [2] = test system: soybean variety Asgrow 2933; test: Field: side dress with 2,4-D Low Vol 4 solution, Laurel, Iowa (Table 3); type: in vivo; settings: for Percent of control: yield vs untreated control
# Experimental: Plants were grown from Roundup Ready variety Asgrow 2933 seed that was treated with accelron (Monsanto) prior to planting. Plants were side dressed by application with a 3-point cultivator modified to spray on the ground in front of the shanks, the shanks then mix the 2,4-D mixture with the soil and move the mixture closer to the plant roots. Plants were treated with between 1X and 4X of 2,4-D Low Vol 4 solution, where 1X is equivalent to approximately 0.19 pounds acid equivalent of 2,4-D. Plants were grown with a row width of 30 inches and row length of 562 feet.
# [3] = 1.0X Rate, L2084R2, 1X~0.45 lb a.e.
# [4] = 1.0X Rate, L2711R2X, 1X~0.45 lb a.e.
# [5] = 1.5X Rate, L2084R2, 1X~0.45 lb a.e.
# [6] = 1.5X Rate, L2711R2X, 1X~0.45 lb a.e.
# [7] = 2.0X Rate, L2084R2, 1X~0.45 lb a.e.
# [8] = 2.0X Rate, L2711R2X, 1X~0.45 lb a.e.
# [9] = 2.5X Rate, L2084R2, 1X~0.45 lb a.e.
# [10] = 2.5X Rate, L2711R2X, 1X~0.45 lb a.e.
# [11] = 3.0X Rate, L2084R2, 1X~0.45 lb a.e.
# [12] = 3.0X Rate, L2711R2X, 1X~0.45 lb a.e.
# [13] = 3.5X Rate, L2084R2, 1X~0.45 lb a.e.
# [14] = 3.5X Rate, L2711R2X, 1X~0.45 lb a.e.
# [15] = 4.0X Rate, L2084R2, 1X~0.45 lb a.e.
# [16] = 4.0X Rate, L2711R2X, 1X~0.45 lb a.e.
# [17] = 4.5X Rate, L2084R2, 1X~0.45 lb a.e.
# [18] = 4.5X Rate, L2711R2X, 1X~0.45 lb a.e.
# [19] = 5.0X Rate, L2084R2, 1X~0.45 lb a.e.
# [20] = 5.0X Rate, L2711R2X, 1X~0.45 lb a.e.
# [21] = 5.5X Rate, L2084R2, 1X~0.45 lb a.e.
# [22] = 5.5X Rate, L2711R2X, 1X~0.45 lb a.e.
# [23] = Average over 1.0X-3.0X Rates, L2084R2
# [24] = Average over 1.0X-3.0X Rates, L2711R2X
# [25] = Average over 1.0X-5.5X Rates, L2084R2
# [26] = Average over 1.0X-5.5X Rates, L2711R2X
# [27] = Overall location average, all rates, both cultivars
# [28] = 1X side dress (1X~0.19 lb a.e.)
# [29] = 2X side dress (1X~0.19 lb a.e.)
# [30] = 3X side dress (1X~0.19 lb a.e.)
# [31] = 4X side dress (1X~0.19 lb a.e.)
smiles,measurement,setting,value
"O=C(O)COc1ccc(Cl)cc1Cl [2,4-D, 2,4-Dichlorophenoxyacetic acid]",Average Yield,[1]; [3],47.77 Bu/A
same,Repetition 1 Weight,[1]; [3],4.3 Lbs
same,Repetition 1 Yield,[1]; [3],49.06 Bu/A
same,Repetition 2 Weight,[1]; [3],4.1 Lbs
same,Repetition 2 Yield,[1]; [3],46.48 Bu/A
same,Average Yield,[1]; [4],46.66 Bu/A
same,Repetition 1 Weight,[1]; [4],3.7 Lbs
same,Repetition 1 Yield,[1]; [4],42.30 Bu/A
same,Repetition 2 Weight,[1]; [4],4.5 Lbs
same,Repetition 2 Yield,[1]; [4],51.02 Bu/A
same,Average Yield,[1]; [5],47.65 Bu/A
same,Repetition 1 Weight,[1]; [5],3.4 Lbs
same,Repetition 1 Yield,[1]; [5],38.79 Bu/A
same,Repetition 2 Weight,[1]; [5],5 Lbs
same,Repetition 2 Yield,[1]; [5],56.51 Bu/A
same,Average Yield,[1]; [6],52.85 Bu/A
same,Repetition 1 Weight,[1]; [6],3.9 Lbs
same,Repetition 1 Yield,[1]; [6],44.54 Bu/A
same,Repetition 2 Weight,[1]; [6],5.4 Lbs
same,Repetition 2 Yield,[1]; [6],61.16 Bu/A
same,Average Yield,[1]; [7],51.64 Bu/A
same,Repetition 1 Weight,[1]; [7],4.5 Lbs
same,Repetition 1 Yield,[1]; [7],51.23 Bu/A
same,Repetition 2 Weight,[1]; [7],4.6 Lbs
same,Repetition 2 Yield,[1]; [7],52.04 Bu/A
same,Repetition 2 Weight,[1]; [8],4.1 Lbs
same,Repetition 2 Yield,[1]; [8],46.43 Bu/A
same,Average Yield,"[1]; 2.0X Rate, L2711R2X, 1X~0.45 lb a.e., repetition 2 only",46.43 Bu/A
same,Average Yield,[1]; [9],38.59 Bu/A
same,Repetition 1 Weight,[1]; [9],3.1 Lbs
same,Repetition 1 Yield,[1]; [9],35.37 Bu/A
same,Repetition 2 Weight,[1]; [9],3.7 Lbs
same,Repetition 2 Yield,[1]; [9],41.81 Bu/A
same,Average Yield,[1]; [10],39.75 Bu/A
same,Repetition 1 Weight,[1]; [10],3.1 Lbs
same,Repetition 1 Yield,[1]; [10],35.29 Bu/A
same,Repetition 2 Weight,[1]; [10],3.9 Lbs
same,Repetition 2 Yield,[1]; [10],44.21 Bu/A
same,Average Yield,[1]; [11],43.14 Bu/A
same,Repetition 1 Weight,[1]; [11],3.5 Lbs
same,Repetition 1 Yield,[1]; [11],39.89 Bu/A
same,Repetition 2 Weight,[1]; [11],4.1 Lbs
same,Repetition 2 Yield,[1]; [11],46.38 Bu/A
same,Average Yield,[1]; [12],45.36 Bu/A
same,Repetition 1 Weight,[1]; [12],3.7 Lbs
same,Repetition 1 Yield,[1]; [12],42.08 Bu/A
same,Repetition 2 Weight,[1]; [12],4.3 Lbs
same,Repetition 2 Yield,[1]; [12],48.65 Bu/A
same,Repetition 1 Weight,[1]; [13],3.4 Lbs
same,Repetition 1 Yield,[1]; [13],38.55 Bu/A
same,Average Yield,"[1]; 3.5X Rate, L2084R2, 1X~0.45 lb a.e., repetition 1 only",38.55 Bu/A
same,Repetition 1 Weight,[1]; [14],4.2 Lbs
same,Repetition 1 Yield,[1]; [14],47.77 Bu/A
same,Average Yield,"[1]; 3.5X Rate, L2711R2X, 1X~0.45 lb a.e., repetition 1 only",47.77 Bu/A
same,Repetition 1 Weight,[1]; [15],4.5 Lbs
same,Repetition 1 Yield,[1]; [15],51.07 Bu/A
same,Average Yield,"[1]; 4.0X Rate, L2084R2, 1X~0.45 lb a.e., repetition 1 only",51.07 Bu/A
same,Repetition 1 Weight,[1]; [16],5.4 Lbs
same,Repetition 1 Yield,[1]; [16],61.28 Bu/A
same,Average Yield,"[1]; 4.0X Rate, L2711R2X, 1X~0.45 lb a.e., repetition 1 only",61.28 Bu/A
same,Repetition 1 Weight,[1]; [17],4.7 Lbs
same,Repetition 1 Yield,[1]; [17],53.28 Bu/A
same,Average Yield,"[1]; 4.5X Rate, L2084R2, 1X~0.45 lb a.e., repetition 1 only",53.28 Bu/A
same,Repetition 1 Weight,[1]; [18],4.7 Lbs
same,Repetition 1 Yield,[1]; [18],53.40 Bu/A
same,Average Yield,"[1]; 4.5X Rate, L2711R2X, 1X~0.45 lb a.e., repetition 1 only",53.40 Bu/A
same,Repetition 1 Weight,[1]; [19],4.1 Lbs
same,Repetition 1 Yield,[1]; [19],46.58 Bu/A
same,Average Yield,"[1]; 5.0X Rate, L2084R2, 1X~0.45 lb a.e., repetition 1 only",46.58 Bu/A
same,Repetition 1 Weight,[1]; [20],4.3 Lbs
same,Repetition 1 Yield,[1]; [20],48.90 Bu/A
same,Average Yield,"[1]; 5.0X Rate, L2711R2X, 1X~0.45 lb a.e., repetition 1 only",48.90 Bu/A
same,Repetition 1 Weight,[1]; [21],4.2 Lbs
same,Repetition 1 Yield,[1]; [21],47.67 Bu/A
same,Average Yield,"[1]; 5.5X Rate, L2084R2, 1X~0.45 lb a.e., repetition 1 only",47.67 Bu/A
same,Repetition 1 Weight,[1]; [22],4.1 Lbs
same,Repetition 1 Yield,[1]; [22],46.48 Bu/A
same,Average Yield,"[1]; 5.5X Rate, L2711R2X, 1X~0.45 lb a.e., repetition 1 only",46.48 Bu/A
same,Repetition 2 Weight,[1]; [23],4.3 Lbs
same,Repetition 2 Yield,[1]; [23],48.65 Bu/A
same,Repetition 2 Weight,[1]; [24],4.4 Lbs
same,Repetition 2 Yield,[1]; [24],50.29 Bu/A
same,Average Yield,[1]; [25],46.59 Bu/A
same,Repetition 1 Weight,[1]; [25],4.0 Lbs
same,Repetition 1 Yield,[1]; [25],45.15 Bu/A
same,Average Yield,[1]; [26],48.89 Bu/A
same,Repetition 1 Weight,[1]; [26],4.1 Lbs
same,Repetition 1 Yield,[1]; [26],46.89 Bu/A
same,Average Yield,[1]; [27],47.74 Bu/A
same,Repetition 1 Weight,[1]; [27],4.0 Lbs
same,Repetition 1 Yield,[1]; [27],45.97 Bu/A
same,Repetition 2 Weight,[1]; [27],4.4 Lbs
same,Repetition 2 Yield,[1]; [27],49.47 Bu/A
same,plant yield (in words),"[1]; Table 2a, 2,4-D mixture 1.0X-5.5X vs untreated",increases plant yield
same,Yield (Bushels/acre at 13% moisture),[2]; [28],58.3 Bushels/acre
same,Harvested weight,"[2]; 1X side dress (1X~0.19 lb a.e.), 12 rows",1292 g
same,Percent of control,[2]; [28],110%
same,Yield (Bushels/acre at 13% moisture),[2]; [29],68.3 Bushels/acre
same,Harvested weight,"[2]; 2X side dress (1X~0.19 lb a.e.), 8 rows",1016 g
same,Percent of control,[2]; [29],130%
same,Yield (Bushels/acre at 13% moisture),[2]; [30],62.8 Bushels/acre
same,Harvested weight,"[2]; 3X side dress (1X~0.19 lb a.e.), 16 rows",1844 g
same,Percent of control,[2]; [30],120%
same,Yield (Bushels/acre at 13% moisture),[2]; [31],70.8 Bushels/acre
same,Harvested weight,"[2]; 4X side dress (1X~0.19 lb a.e.), 16 rows",2088 g
same,Percent of control,[2]; [31],135%
same,plant yield (in words),[2]; side dress treatment 1X-4X vs untreated,greatly increases plant yield
